In ChEMBL document CHEMBL1201862, “PubChem BioAssay data set” (2004):
The source made the active and inactive calls.

What was measured:
[1] = molecular target: Casein kinase II subunit alpha (Homo sapiens, UniProt P68400); assay type: functional
[2] = molecular target: Cyclin-dependent kinase 1 (Homo sapiens, UniProt P06493); assay type: functional;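 further: Kinome-wide panel profiling, with the target listed as panel member CDC2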
[3] = molecular target: Serine/threonine-protein kinase Chk2 (Homo sapiens, UniProt O96017); assay type: functional;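 further: CHEK2 entry within a kinome-wide screening panel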
Serine/threonine-protein kinase Chk2, sequence (O96017 whole entry): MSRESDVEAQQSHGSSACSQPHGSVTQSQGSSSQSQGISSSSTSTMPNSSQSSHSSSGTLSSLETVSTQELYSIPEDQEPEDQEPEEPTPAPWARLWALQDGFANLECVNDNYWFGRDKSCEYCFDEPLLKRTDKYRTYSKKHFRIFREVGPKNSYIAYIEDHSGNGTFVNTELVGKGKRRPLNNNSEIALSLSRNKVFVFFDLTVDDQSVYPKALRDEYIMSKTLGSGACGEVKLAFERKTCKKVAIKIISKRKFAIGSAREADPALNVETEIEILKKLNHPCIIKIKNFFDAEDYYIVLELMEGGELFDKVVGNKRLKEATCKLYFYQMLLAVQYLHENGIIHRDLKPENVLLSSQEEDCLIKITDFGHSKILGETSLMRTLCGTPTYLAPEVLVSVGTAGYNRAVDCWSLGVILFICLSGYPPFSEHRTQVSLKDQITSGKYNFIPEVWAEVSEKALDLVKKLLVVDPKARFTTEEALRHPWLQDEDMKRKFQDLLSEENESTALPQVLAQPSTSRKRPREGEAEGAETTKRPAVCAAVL

[4] = molecular target: MAP/microtubule affinity-regulating kinase 3 (Homo sapiens, UniProt P27448); assay type: functional;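 further: MARK3 affinity measured as one member of a kinome panel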
MAP/microtubule affinity-regulating kinase 3, sequence (P27448 whole entry): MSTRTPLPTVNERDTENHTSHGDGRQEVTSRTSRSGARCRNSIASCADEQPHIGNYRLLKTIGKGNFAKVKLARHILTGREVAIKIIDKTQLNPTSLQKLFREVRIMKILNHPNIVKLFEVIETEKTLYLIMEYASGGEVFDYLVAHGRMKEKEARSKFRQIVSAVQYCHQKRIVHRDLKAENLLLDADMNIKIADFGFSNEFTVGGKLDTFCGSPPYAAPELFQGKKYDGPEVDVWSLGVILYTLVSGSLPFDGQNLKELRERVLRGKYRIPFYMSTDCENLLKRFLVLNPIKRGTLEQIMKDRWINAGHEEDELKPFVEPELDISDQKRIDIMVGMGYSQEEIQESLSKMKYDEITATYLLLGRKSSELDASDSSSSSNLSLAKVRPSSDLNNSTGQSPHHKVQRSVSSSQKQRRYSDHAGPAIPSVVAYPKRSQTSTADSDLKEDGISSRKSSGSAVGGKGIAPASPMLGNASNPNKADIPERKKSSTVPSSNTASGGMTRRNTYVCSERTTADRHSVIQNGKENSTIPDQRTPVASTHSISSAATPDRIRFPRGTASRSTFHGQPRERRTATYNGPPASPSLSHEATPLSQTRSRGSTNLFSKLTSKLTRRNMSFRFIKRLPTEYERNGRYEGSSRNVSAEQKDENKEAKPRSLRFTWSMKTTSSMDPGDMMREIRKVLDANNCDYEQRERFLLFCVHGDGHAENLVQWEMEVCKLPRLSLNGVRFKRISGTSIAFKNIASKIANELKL

Aurora kinase A = Aurora kinase A (Homo sapiens, UniProt O14965); assay type: functional;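 further: value from the Navigating the Kinome kinase panel profiling, panel entry STK6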
Aurora kinase A, sequence (O14965 whole entry): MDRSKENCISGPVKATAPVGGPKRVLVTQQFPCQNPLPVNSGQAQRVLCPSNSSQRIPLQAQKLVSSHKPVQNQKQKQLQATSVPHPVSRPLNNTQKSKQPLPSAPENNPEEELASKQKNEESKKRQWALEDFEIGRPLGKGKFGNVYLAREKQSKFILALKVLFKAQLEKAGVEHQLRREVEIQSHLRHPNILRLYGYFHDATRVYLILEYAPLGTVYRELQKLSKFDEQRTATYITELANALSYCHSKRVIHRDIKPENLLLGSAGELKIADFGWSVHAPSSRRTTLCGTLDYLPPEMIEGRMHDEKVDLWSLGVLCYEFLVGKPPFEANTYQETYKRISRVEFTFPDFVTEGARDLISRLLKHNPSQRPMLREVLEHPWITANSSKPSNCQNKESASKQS

[5] = molecular target: Fibroblast growth factor receptor 1 (Homo sapiens, UniProt P11362); assay type: functional
Fibroblast growth factor receptor 1, sequence (P11362 whole entry): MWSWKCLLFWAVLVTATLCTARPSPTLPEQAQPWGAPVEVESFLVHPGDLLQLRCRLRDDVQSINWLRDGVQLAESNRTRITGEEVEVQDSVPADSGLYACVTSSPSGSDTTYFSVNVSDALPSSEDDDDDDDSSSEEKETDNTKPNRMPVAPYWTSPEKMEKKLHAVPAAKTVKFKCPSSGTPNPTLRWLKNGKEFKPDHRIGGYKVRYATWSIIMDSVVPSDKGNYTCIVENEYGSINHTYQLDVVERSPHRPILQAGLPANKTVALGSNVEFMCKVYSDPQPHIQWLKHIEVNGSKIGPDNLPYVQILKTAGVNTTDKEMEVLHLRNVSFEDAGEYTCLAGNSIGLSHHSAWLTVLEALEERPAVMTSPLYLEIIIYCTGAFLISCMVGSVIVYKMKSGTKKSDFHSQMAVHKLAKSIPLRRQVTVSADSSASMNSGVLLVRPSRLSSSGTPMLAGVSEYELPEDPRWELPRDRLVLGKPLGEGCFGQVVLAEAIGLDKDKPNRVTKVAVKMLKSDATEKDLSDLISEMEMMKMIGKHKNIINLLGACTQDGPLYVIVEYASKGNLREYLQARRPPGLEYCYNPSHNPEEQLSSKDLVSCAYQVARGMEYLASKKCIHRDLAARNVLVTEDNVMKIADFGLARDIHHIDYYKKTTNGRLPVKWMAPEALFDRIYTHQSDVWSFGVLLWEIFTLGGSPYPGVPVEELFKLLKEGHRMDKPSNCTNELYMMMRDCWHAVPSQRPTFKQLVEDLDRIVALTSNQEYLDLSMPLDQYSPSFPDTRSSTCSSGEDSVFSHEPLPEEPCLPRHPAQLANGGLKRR

CHO-K1 = test: (§1) Counterscreen for antagonists of the orexin 1 receptor (OX1R; HCRTR1): Homogeneous time resolved fluorescence (HTRF)-based cell-based dose response assay to identify antagonists of the parental CHO-K1 cell line. [Related pubchem assays (depositor defined):AID434989, AID435008, AID463079, AID485270, AID492963, AID492964, AID492965, AID493232, AID504699, AID504701]; assay type: functional; details: Cricetulus griseus
Protein RecA = molecular target: T1, Protein RecA (Mycobacterium tuberculosis, UniProt P9WHJ3); test: Fluorescence Cell-Free Homogeneous Dose Retest to Identify Inhibitors of RecA-Intein Splicing Activity. [Related pubchem assays (depositor defined):AID2097, AID2223, AID489010, AID492950]; assay type: functional
T1 sequence (P9WHJ3 whole entry): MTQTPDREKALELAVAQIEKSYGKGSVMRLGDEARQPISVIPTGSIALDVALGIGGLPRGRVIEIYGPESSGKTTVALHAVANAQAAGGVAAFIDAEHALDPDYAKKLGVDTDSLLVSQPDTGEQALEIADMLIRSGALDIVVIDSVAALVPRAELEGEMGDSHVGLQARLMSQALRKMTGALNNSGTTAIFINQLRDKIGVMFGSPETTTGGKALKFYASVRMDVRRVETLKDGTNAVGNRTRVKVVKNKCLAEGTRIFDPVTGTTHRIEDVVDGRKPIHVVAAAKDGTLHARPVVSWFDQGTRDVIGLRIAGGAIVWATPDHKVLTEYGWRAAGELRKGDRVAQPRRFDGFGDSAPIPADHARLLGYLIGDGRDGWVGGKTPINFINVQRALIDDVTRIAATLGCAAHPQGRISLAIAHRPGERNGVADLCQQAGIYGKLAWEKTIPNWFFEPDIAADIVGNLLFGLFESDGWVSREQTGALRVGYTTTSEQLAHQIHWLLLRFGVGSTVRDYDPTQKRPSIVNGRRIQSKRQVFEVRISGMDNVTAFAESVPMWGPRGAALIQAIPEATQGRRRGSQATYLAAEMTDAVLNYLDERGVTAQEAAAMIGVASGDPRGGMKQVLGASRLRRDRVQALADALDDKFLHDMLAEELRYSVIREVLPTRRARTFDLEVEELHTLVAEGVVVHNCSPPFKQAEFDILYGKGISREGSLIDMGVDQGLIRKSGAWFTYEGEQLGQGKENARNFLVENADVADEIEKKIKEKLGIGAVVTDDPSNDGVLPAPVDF

[6] = HEp-2 cell cytotoxicity, dose response, cytotoxicity control for RSV inhibitor project, HTS (AID 2410); assay type: functional; details: human respiratory syncytial virus
Paired box protein Pax-8 = Paired box protein Pax-8 (Homo sapiens, UniProt Q06710); test: inhibitors of PAX8-driven TPO luciferase reporter, dose response, RMG-I cells, cherry-pick (AID 687027); assay type: functional, cell-based;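 further: luciferase reporter driven by Pax8 target thyroperoxidase promoter measured by SteadyGlo luminescence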
Paired box protein Pax-8, sequence (Q06710 whole entry): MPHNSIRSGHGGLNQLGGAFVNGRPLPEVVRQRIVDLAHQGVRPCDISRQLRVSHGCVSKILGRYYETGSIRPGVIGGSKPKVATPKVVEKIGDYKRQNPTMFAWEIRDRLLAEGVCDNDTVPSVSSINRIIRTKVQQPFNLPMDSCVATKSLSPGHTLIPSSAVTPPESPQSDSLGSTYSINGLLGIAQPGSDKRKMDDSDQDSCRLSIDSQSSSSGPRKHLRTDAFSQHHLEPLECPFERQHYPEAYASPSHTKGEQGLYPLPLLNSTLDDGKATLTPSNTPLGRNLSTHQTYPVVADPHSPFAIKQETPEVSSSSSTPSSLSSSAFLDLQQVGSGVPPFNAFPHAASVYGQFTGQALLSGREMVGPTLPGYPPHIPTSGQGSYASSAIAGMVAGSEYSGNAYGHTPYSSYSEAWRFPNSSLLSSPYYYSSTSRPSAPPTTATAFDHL

[7] = C. albicans growth with fluconazole, confirmation, fluorescence, retest (AID 2467); assay type: functional, cell-based
[8] = molecular target: T2, Orexin/Hypocretin receptor type 1 (Homo sapiens, UniProt O43613); test: (§2) Fluorescence-based cell-based high throughput dose response assay for antagonists of the orexin 1 receptor (OX1R; HCRTR1). [Related pubchem assays (depositor defined):AID434989, AID435008, AID463079, AID485270, AID492963, AID492964, AID492965, AID493232, AID504717, AID504718]; assay type: functional
T2 sequence (O43613 whole entry): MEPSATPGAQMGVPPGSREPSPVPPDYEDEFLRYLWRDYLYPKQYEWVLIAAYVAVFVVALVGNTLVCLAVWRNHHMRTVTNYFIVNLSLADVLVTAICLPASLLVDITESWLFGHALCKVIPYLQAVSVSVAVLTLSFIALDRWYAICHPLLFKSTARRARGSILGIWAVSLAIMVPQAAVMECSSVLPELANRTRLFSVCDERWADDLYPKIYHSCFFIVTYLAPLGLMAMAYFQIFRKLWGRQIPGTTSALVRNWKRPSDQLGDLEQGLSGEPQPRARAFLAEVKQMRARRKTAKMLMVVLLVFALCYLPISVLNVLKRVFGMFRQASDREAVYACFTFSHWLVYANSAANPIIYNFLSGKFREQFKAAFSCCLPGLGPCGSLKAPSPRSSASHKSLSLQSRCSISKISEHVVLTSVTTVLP

[9] = NIH-3T3 fibroblast cytotoxicity, dose response, cytotoxicity control, cell-based, fluorescence, Alamar Blue, secondary assay (AID 2327); assay type: functional;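 further: NIH-3T3 mouse fibroblasts cultured with fluconazole at 8 µg/mL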
INS1 = test: beta cell apoptosis inhibitors, cytokine rescue, dose response, luminescence, retest (AID 449756); assay type: functional, cell-based; details: Rattus norvegicus;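 further: cell death triggered by IL-1 beta plus TNF-alpha plus IFN-gamma mixture; protective hits raise ATP signal compared with cytokine alone wells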
[10] = tested on: Streptococcus sp. 'group A'; test: growth inhibition of control SK(-) GAS strain, dose response, counter-screen for streptokinase expression inhibitor project, luminescence, kanamycin, BacTiterGlo, confirmation (AID 1900); assay type: functional, organism-based
Orexin receptor type 2 [11] = molecular target: T3, Orexin receptor type 2 (Homo sapiens, UniProt O43614); test: Counterscreen assay for antagonists of the orexin 1 receptor (OX1R; HCRTR1): Fluorescence-based cell-based dose response assay for antagonists of the orexin 2 receptor (OX2R; HCRTR2), run by assay provider.; assay type: functional
T3 sequence (O43614 whole entry): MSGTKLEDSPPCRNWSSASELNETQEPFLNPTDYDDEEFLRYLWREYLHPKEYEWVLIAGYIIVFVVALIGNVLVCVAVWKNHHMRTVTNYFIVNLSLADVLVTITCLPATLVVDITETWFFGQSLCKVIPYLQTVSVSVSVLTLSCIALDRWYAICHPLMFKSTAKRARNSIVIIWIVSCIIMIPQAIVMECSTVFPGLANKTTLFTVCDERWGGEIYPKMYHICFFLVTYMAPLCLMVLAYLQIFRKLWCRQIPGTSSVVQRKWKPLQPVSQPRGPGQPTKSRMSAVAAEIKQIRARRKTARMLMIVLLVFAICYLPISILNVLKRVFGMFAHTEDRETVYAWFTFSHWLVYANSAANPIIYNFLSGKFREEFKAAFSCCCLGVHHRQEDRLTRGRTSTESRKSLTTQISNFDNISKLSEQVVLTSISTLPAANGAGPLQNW

[12] = molecular target: T4, Replicative DNA helicase DnaB (Mycobacterium tuberculosis, UniProt P9WMR3); test: DnaB intein splicing inhibitors, dose response, biochemical, cell-free fluorescence (AID 449749); assay type: functional
T4 sequence (P9WMR3 whole entry): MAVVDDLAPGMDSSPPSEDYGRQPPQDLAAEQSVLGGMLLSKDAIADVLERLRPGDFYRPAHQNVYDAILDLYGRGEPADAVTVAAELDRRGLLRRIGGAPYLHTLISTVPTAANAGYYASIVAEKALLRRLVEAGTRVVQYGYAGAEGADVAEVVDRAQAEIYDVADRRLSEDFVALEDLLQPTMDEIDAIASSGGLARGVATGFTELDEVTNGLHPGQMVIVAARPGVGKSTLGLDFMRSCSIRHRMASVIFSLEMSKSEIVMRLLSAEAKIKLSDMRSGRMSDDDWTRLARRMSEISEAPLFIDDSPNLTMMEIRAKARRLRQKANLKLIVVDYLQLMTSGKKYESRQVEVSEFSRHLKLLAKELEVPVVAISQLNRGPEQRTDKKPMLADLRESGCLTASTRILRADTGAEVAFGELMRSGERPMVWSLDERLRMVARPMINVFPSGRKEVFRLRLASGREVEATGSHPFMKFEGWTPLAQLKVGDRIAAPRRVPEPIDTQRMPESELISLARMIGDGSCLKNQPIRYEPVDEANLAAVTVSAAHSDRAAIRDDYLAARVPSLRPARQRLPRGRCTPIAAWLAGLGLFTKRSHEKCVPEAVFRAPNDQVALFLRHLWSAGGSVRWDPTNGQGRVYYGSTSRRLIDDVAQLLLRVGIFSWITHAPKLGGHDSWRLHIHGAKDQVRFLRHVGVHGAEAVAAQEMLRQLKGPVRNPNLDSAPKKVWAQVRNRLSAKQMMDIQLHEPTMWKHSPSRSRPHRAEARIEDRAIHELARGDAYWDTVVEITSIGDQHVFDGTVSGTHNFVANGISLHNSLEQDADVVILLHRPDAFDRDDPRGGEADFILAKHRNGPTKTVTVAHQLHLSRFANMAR

[13] = molecular target: T2, Orexin/Hypocretin receptor type 1; test: as §2, with “Homogeneous Time Resolved Fluorescence (HTRF)-based” for “Fluorescence-based”; assay type: functional
Streptococcus = test: Group A Streptococcus viability loss, dose response, counter-screen for streptokinase expression inhibitor project, luminescence, BacTiterGlo (AID 1915); assay type: functional, organism-based;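 further: potency for reduction of bacterial viability or growth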
Orexin receptor type 2 [14] = molecular target: T3, Orexin receptor type 2; test: Counterscreen assay for antagonists of the orexin 1 receptor (OX1R; HCRTR1): Homogeneous Time Resolved Fluorescence (HTRF)-based cell-based dose response assay for antagonists of the orexin 2 receptor (OX2R; HCRTR2), run by assay provider.; assay type: functional
Streptokinase A = molecular target: T5, Streptokinase A (Streptococcus pyogenes serotype M1, UniProt P10520); test: S. pyogenes streptokinase expression inhibitors, potency, dose response, plasminogen activation absorbance, OD405 (AID 1914); assay type: functional, Streptococcus pyogenes M1 GAS;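 further: secreted streptokinase activity via plasminogen activation per viability signal from cell pellet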
T5 sequence (P10520 whole entry): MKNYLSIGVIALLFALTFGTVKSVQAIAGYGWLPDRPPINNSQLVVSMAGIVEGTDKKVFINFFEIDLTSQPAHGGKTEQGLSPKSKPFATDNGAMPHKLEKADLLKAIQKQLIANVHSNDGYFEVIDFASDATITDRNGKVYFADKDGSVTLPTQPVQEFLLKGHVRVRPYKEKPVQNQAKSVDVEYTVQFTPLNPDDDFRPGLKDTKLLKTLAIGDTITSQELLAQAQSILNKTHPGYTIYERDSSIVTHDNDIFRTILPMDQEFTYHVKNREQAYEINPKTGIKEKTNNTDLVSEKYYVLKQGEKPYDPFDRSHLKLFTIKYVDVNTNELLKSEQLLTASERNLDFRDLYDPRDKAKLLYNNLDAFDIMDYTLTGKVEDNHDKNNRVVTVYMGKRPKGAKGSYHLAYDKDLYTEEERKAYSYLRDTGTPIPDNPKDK

[15] = as §1, with “Fluorescence-based” for “Homogeneous time resolved fluorescence (HTRF)-based”, “cell-based high throughput” for “cell-based”, “CHO” for “CHO-K1”; assay type: functional
[16] = non-specific cell cytotoxicity, dose response, cytotoxicity control for PAX8 inhibitor project, plate reader, dry powder samples (AID 743021); assay type: functional, cell-based

Casein kinase II subunit alpha, sequence (P68400 whole entry): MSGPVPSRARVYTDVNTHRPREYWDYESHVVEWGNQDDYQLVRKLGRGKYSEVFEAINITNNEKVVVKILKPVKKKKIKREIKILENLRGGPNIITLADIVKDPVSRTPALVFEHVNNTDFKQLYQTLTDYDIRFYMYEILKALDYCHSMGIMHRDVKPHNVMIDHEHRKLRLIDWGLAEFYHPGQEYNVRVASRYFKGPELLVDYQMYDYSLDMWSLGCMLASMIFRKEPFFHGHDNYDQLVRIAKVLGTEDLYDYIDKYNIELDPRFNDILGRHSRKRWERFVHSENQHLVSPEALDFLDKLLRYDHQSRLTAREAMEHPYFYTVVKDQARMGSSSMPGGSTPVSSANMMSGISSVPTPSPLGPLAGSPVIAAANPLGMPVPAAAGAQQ
Cyclin-dependent kinase 1, sequence (P06493 whole entry): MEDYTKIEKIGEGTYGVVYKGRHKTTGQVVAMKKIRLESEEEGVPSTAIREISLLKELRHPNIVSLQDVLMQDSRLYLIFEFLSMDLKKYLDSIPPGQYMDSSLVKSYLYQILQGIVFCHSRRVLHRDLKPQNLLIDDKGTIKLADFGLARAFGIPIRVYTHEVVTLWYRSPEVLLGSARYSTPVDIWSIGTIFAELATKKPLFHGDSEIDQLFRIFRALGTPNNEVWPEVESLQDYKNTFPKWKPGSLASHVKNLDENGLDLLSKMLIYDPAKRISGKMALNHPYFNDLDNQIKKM

With Fc1ccc2c(c1)-c1n[nH]cc1CS2 the Ki [1] was 6.31 µM (active), the Ki [2] was 15.8 µM (active) and the Ki [3] was 6.31 µM (active). The Ki [4] was 12.6 µM (active), the Ki (Aurora kinase A) was 5.01 µM (active) and the Ki [5] was 10 µM (active).
For COc1cccc(/C=N/Nc2cc(C)nc(-c3ccccc3O)n2)c1O, the IC50 (CHO-K1) was > 66.2 µM (inactive), the EC50 (Protein RecA) was 357 µM (inconclusive) and the CC50 [6] was 5.1 µM (active). For the same compound, the AC50 (Paired box protein Pax-8) was 5.5 µM (active), the EC50 [7] was 0.294 µM (active) and the IC50 [8] was 3.31 µM (active). For the same compound, the EC50 [9] was 5.22 µM (inconclusive), the AC50 (INS1) was 1.93 µM (active) and the EC50 [10] was 0.876 µM (active). For the same compound, the IC50 (Orexin receptor type 2 [11]) was 11.9 µM (inactive), the AC50 [12] was 30.1 µM (active) and the IC50 [13] was 2.91 µM (active). For the same compound, the EC50 (Streptococcus) was 6.64 µM (active), the IC50 (Orexin receptor type 2 [14]) was > 50 µM (inactive) and the EC50 (Streptokinase A) was > 150 µM (not active). For the same compound, the IC50 [15] was > 49.8 µM (inactive) and the AC50 [16] was 16.2 µM (active).
